From patent US8895511B2, “Use of sarcoplasmic CA2+-ATPase type 2 protein for diagnosing and treating learning or mental disorders” (priority 2009, dated 2014)

Assays:
[1] = tested on: CA3-CA1 synapses in acute hippocampal slices; test: PTP and LTP of fEPSPs induced by 200-Hz tetanization in hippocampal slices; type: cell-based, mouse; conditions: CPA or thapsigargin (4 μm); for fEPSP5 (PTP, 5 minutes after tetanization) as % of that in vehicle-treated Df(16)1/+ slices / fEPSP360 (LTP, 6 hours post-tetanus) as % of that in vehicle-treated Df(16)1/+ slices: slices from mature Df(16)1/+ mice
[2] = tested on: CA3-CA1 synapses in acute hippocampal slices; test: Paired-pulse facilitation (PPF) of fEPSPs, field potential recordings in hippocampal slices; type: cell-based, mouse
[3] = WT mice, 200-Hz induction protocol

SMILES	effect on enhancement of PTP and LTP ([1]; Df(16)1/+ mice, 200-Hz tetanization)	WT fEPSP5 in the presence vs absence of inhibitor [1, 3]	WT fEPSP360 in the presence vs absence of inhibitor [1, 3]	fEPSP5 (PTP, 5 minutes after tetanization) as % of that in vehicle-treated Df(16)1/+ slices ([1]; 200-Hz tetanization) [%]	fEPSP360 (LTP, 6 hours post-tetanus) as % of that in vehicle-treated Df(16)1/+ slices ([1]; 200-Hz tetanization) [%]	PPF ([2]; Df(16)1/+ mice, 20-ms interval, CPA added to the bath solution)	PPF ([2]; Df(16)1/+ mice, 50-ms interval, CPA added to the bath solution)	PPF ([2]; WT mice, 20-ms interval, in the presence of CPA)	PPF ([2]; WT mice, 50-ms interval, in the presence of CPA)
C/C=C(/C)C(=O)O[C@H]1C(C)=C2[C@H]([C@@H]1OC(=O)CCCCCCC)[C@@](C)(OC(C)=O)C[C@H](OC(=O)CCC)[C@@]1(O)[C@H]2OC(=O)[C@@]1(C)O [thapsigargin]	rescued the enhancement of PTP and LTP	no significant difference	no significant difference	69	57				
CC(=O)C1=C(O)[C@@H]2[C@H]3c4c[nH]c5cccc(c45)C[C@H]3C(C)(C)N2C1=O [CPA, cyclopiazonic acid]				45	60	1.78±0.13	1.76±0.09	1.64±0.11	1.61±0.05
